Measurements from article PMC6269792, “Arylsulfonylamino-Benzanilides as Inhibitors of the Apical Sodium-Dependent Bile Salt Transporter (SLC10A2)” (Molecules, 2013).

How the values were obtained:
ASBT = details: read-out: IC50 against ASBT; cited from earlier work
Human ASBT = target: T1, Human ASBT (Homo sapiens, UniProt Q12908); assay: ASBT inhibition assay: [3H]-taurocholic acid uptake in HEK293T cells transiently transfected with human ASBT; type: cell-based; details: for inhibition at 10 µM: HEK-293T; for IC50: inhibitor concentration that gives 50% taurocholate uptake compared to no inhibitor control
T1 construct: expressed in transfected cells; host or cells: HEK293T
T1 sequence (Q12908 1-348): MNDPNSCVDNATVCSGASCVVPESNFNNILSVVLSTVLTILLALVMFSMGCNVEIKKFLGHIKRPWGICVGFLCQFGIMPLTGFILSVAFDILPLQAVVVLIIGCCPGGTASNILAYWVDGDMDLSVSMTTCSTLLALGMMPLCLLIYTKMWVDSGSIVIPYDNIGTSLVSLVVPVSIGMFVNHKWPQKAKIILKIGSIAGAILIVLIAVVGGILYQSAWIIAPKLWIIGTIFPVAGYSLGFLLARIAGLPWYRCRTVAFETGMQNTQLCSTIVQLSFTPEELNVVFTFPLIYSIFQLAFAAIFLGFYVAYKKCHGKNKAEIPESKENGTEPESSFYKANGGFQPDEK
Method: In vitro inhibitory activity of all target compounds against ASBT was evaluated using a radioisotope-based assay. All the newly synthesized derivatives were initially tested at 10 μM concentration (Table 1).
HEK293T was obtained from the American Type Culture Collection (Manassas, VA, USA), and grown in MEM supplemented with 100 U/mL penicillin and […] streptomycin and 10% heat-inactivated fetal bovine serum. Human ASBT expression construct was prepared as previously described. HEK293T cells were seeded in 12 well plates and transiently transfected with 0.5 μg/well pcDNA3.1/ASBT or negative control plasmid pcDNA3.1 using lipofactamine 2000 (Invitrogen, Carlsbad, CA, USA) according to the manufacturer’s instructions. Twenty-four hours after transfection, HEK293T cells were assayed for taurocholic acid uptake as previously described with minor modifications. […] To terminate the transport process, the plates were chilled on ice and the cells were immediately washed with ice-cold buffer three times. Cells were lysed with 0.3 mL lysis buffer (0.5% triton x-100) and shaken vigorously for 20 min. The radioactivity of the cell lysate was counted using a MicroBeta^2 Liquid Scintillation and Luminescence Counter (PerkinElmer Life Sciences). Protein concentration of the lysate was used to normalize uptake activity.
The inhibition rate was calculated using the following formula: Inhibition Rate (%) = [(1 − (A − C)/(B − C)] × 100
A, [^3H] uptake value of test compound in [^3H]-TCA buffer added to pcDNA3.1/ASBT transfected cells; B, [^3H] uptake value of DMSO (without inhibitor) in [^3H]-TCA buffer added to pcDNA3.1/ASBT transfected cells; C, [^3H] uptake value of Blank sample (DMSO) in [^3H]-TCA buffer added to empty vector (pcDNA3.1) transfected cells.

SMILES	IC50 (ASBT)	melting point	inhibition at 10 µM (Human ASBT)	IC50 (Human ASBT)
O=C(Nc1ccc(Cl)c(Cl)c1)c1ccccc1NS(=O)(=O)c1cccc([N+](=O)[O-])c1 [Compound 5a1, N-(3,4-Dichlorophenyl)-2-(3-nitrophenylsulfonamido)benzamide]	4000 nM	–	–	–
COc1cccc(S(=O)(=O)Nc2ccccc2C(=O)Nc2ccc(Cl)c(Cl)c2)c1 [Compound 5f5, N-(3,4-Dichlorophenyl)-2-(3-methoxyphenylsulfonamido)benzamide]	–	160.3 to 161.4 °C	20.1 ± 1.9%	–
O=C(Nc1ccc(Cl)cc1Cl)c1ccccc1NS(=O)(=O)c1cccc(OC(F)(F)F)c1 [Compound 5g1, N-(2,4-Dichlorophenyl)-2-(3-(trifluoromethoxy)phenylsulfonamido)benzamide]	–	151.6 to 152.8 °C	89.3 ± 3.3%	910 ± 180 nM
O=C(Nc1ccc(F)c(Cl)c1)c1ccccc1NS(=O)(=O)c1cccc(OC(F)(F)F)c1 [Compound 5g2, N-(3-Chloro-4-fluorophenyl)-2-(3-(trifluoromethoxy)phenylsulfonamido)benzamide]	–	157.3 to 158.6 °C	98.6 ± 2.6%	110 ± 50 nM
Cc1ccc(NC(=O)c2ccccc2NS(=O)(=O)c2cccc(OC(F)(F)F)c2)cc1C(F)(F)F [Compound 5g3, N-(4-Methyl-3-(trifluoromethyl)phenyl)-2-(3-(trifluoromethoxy)phenylsulfonamido)benzamide]	–	179.4 to 180.5 °C	91.8 ± 3.5%	830 ± 110 nM
O=C(Nc1cccc(OC(F)(F)F)c1)c1ccccc1NS(=O)(=O)c1cccc(OC(F)(F)F)c1 [Compound 5g4, N-(3-(Trifluoromethoxy)phenyl)-2-(3-(trifluoromethoxy)phenylsulfonamido)benzamide]	–	169.1 to 170.4 °C	88.1 ± 2.7%	1030 ± 160 nM
